According to US9221761B2, “Method for inhibition of deubiquitinating activity” (Vivolux AB, priority 2011, dated 2015):

What was measured:
[1] = molecular target: T1, 19S RP (Homo sapiens, UniProt P54578+Q9Y5K5); assay: Ubiquitin-cleavage assay (Ub-GFP, ubiquitinated Hdm2); format: biochemical; conditions: 19S RP 25 nM, 50 μM compound, 10 min
T1 construct: purchased Boston Biochem E-366
Method: Recombinant ubiquitin-GFP is a substrate for 19S RP DUB activity (15). […] The type of ubiquitin bonds present in the polyubiquitin chain determines the fate of an ubiquitin-modified substrate.
Ubiquitin-cleavage assay. The recombinant Ub-GFP plasmid pet19b Ub-M-GFP is generated as described (30). In brief recombinant Ub-GFP is purified from BL21 E. coli cells by His affinity purification. For cleavage assays 19S RP (25 nM) is incubated with 10 mM NEM, 250 μM TPEN or 50 μM of the compound of the invention for 10 min followed by the addition of recombinant Ub-GFP (200 nM). Ubiquitin chain disassembly reactions are performed essentially as above except K48- or K63-linked ubiquitin tetramers (50 ng) are substituted for Ub-GFP. The level of Ub-GFP cleavage or ubiquitin disassembly is determined by immunoblotting with anti ubiquitin antibodies. The ubiquitinated Hdm2 substrate is generated according to the Boston Biochem protocol (K-200). For the cleavage assay 19S RP (25 nM) is incubated with 50 μM of the compound of the invention or DMSO for 10 min followed by the addition of ubiquitinated Hdm2 substrate (100 nM). The cleavage of ubiquitinated Hdm2 substrate and ubiquitinated Hdm2 is determined by immunoblotting with anti-Hdm2 antibodies.

[2] = test system: HCT116 colon cancer cells; assay: Apoptosis in isogenic clones of HCT116 colon cancer cells; format: cell-based
From the text: The increase in sub G1 DNA, caspase-3 activation and cleavage of poly-ADP ribose polymerase (PARP) and cytokeratin is associated with an overall decrease in cell viability at drug concentrations that induce the accumulation of polyubiquitin connecting UPS inhibition and apoptosis. Apoptosis induction by bortezomib is sensitive to the status of the p53 tumor suppressor and over-expression of the anti-apoptotic Bcl-2 oncoprotein (11, 12). […] Cell culture. MCF7 cells are maintained in MEM/10% fetal calf serum. HCT-116 p53+/+, p53−/−, Bcl-2+/+, PUMA−/− and BAX−/− cells are maintained in McCoy's 5A modified medium/10% fetal calf serum. The HCT-116 p53+/+, p53−/−, PUMA−/− and BAX−/− are generated as described (25). The HCT-116 Bcl-2+/+ cell line was generated by transfecting parental HCT-116 p53+/+ cells with pCEP4 Bcl-2 (Addgene plasmid 16461) (26) and isolating high expression clones. FaDu and LLC3 cells are maintained in DMEM high glucose medium supplemented with 10% fetal calf serum, Na pyruvate, Hepes and non-essential amino acids. 4T1.12B carcinoma cells are maintained in RPMI medium supplemented with 10% fetal calf serum. The proteasome reporter cell line MelJuSo Ub-YFP was generated as described (12). […] Cell viability is determined by measuring acid phosphatase activity or using the FMCA method (32). […] Absorbance is measured at 405 nm. […]

[3] = test system: HCT-116 cells; assay: Cell cycle arrest and DNA damage markers; format: cell-based

`C=CC(=O)N1C/C(=C\c2ccc([N+](=O)[O-])cc2)C(=O)/C(=C/c2ccc([N+](=O)[O-])cc2)C1` [b-AP15] was tested, and the “cleavage of Ub-GFP and ubiquitinated HDM2 by 19S RP” value [1] was “efficiently inhibited”, the “sensitivity of induced apoptosis to over-expression of Bcl-2 and disruption of p52, BAX or PUMA” value [2] was “insensitive” and the “genotoxicity (DNA damage markers phosphorylated p53 Ser 15, H2AX Ser 139)” value [3] was “not a genotoxic agent”.
